Source: patent US9572878B2, “Method of combination therapy using an EGFR antagonist and anti-c-Met antibody” (SAMSUNG ELECTRONICS CO., LTD., priority 2013, dated 2017)
One block for each molecule: values may come before it.

Assays:
HCC827 ER #15 cell line = assay: Confirmation of erlotinib resistance, cell number by CCK-8; assay type: cell-based, human; settings: HCC827 ER #15 vs HCC827; various concentrations, 120 hours; FIG. 3
Procedure: HCC827 human lung cancer cell line was in vitro treated with an EGFR antagonist erlotinib for a given period to establish HCC827 ER(HCC827 erlotinib-resistant) cell line. More specifically, HCC827 human lung cancer cell line (CRL-2868, ATCC) was in vitro treated with an EGFR antagonist erlotinib (Roche) in an amount of 5 nM to 10 nM for 5 months or more, to construct Erlotinib resistant cell (ER cell) clone.

HCC827 ER #15 = assay: Combined use of erlotinib and antibodies in erlotinib resistant cell line, cell number by CCK-8; assay type: cell-based, human
Procedure: In a 96 well plate, diluted HCC827 ER #15 was seeded at 5000 cells/well in a […] medium (GIBCO) containing 10% FBS, and then, incubated at 37° C. overnight. On the next day, the medium was replaced with a RPMI1640 medium containing 1% FBS (GIBCO), and then, the antibody was serially diluted from 100 ug/ml, and the cells were treated therewith at 100 ul. For co-administration, the cells were treated with 10 nM or 100 nM erlotinib, together with the antibody. After 5 days, the number of cells was measured using a CCK-8 reagent (Dojindo laboratory).

c-Met = c-Met (Homo sapiens, UniProt P08581); assay: Specificity of expressed scFv of huAbF46; assay type: binding; settings: expressed scFv product
c-Met, sequence (P08581 25-1390): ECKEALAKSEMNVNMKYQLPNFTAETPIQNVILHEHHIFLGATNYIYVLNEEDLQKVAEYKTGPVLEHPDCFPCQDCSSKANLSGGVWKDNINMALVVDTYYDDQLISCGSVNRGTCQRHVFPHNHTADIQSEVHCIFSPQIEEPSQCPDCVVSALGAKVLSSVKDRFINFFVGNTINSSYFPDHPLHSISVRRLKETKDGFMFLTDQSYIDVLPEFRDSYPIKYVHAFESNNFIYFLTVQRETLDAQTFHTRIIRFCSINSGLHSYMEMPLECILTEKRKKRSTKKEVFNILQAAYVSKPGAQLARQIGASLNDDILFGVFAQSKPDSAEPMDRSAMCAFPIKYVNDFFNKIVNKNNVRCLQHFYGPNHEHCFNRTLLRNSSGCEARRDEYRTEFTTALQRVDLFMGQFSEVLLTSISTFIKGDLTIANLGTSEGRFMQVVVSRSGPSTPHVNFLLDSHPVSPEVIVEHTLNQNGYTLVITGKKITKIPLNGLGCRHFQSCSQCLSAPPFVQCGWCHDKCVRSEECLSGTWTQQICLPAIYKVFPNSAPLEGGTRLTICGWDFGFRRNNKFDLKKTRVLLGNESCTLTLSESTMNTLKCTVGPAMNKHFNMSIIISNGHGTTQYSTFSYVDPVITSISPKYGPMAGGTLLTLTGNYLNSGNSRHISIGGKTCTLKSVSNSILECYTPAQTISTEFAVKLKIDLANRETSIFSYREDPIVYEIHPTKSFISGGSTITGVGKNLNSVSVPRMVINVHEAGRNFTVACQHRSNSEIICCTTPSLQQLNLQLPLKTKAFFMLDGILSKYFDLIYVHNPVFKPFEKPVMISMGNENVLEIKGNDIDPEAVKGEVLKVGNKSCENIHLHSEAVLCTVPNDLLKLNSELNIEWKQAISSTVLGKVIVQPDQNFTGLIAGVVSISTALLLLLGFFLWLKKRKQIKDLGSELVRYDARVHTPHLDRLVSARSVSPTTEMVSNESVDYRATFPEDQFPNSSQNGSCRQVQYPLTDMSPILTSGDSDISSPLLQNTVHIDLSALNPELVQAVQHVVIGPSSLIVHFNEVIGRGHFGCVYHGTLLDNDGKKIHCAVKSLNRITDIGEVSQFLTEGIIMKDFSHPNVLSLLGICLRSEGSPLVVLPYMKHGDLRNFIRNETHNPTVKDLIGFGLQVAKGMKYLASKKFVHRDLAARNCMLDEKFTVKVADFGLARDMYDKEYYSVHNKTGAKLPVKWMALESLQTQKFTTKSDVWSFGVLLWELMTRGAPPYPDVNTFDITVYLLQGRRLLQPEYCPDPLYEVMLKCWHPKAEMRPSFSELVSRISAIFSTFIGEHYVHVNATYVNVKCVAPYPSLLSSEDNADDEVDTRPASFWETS
Excerpt: For use in constructing an scFv of the huAbF46 antibody from the heavy and light chain variable regions of the huAbF46 antibody, a gene was designed to have the structure of “VH-linker-VL” for each of the heavy and the light chain variable region, with the linker having the amino acid sequence “[…]” (SEQ ID NO: 54). A polynucleotide sequence (SEQ ID NO: 55) encoding the designed scFv of huAbF46 was synthesized in Bioneer and an expression vector for the polynucleotide had the nucleotide sequence of SEQ ID NO: 56.

Molecule: C#Cc1cccc(Nc2ncnc3cc(OCCOC)c(OCCOC)cc23)c1 [erlotinib]
resistance of cell line to EGFR antagonist (HCC827 ER #15 cell line): resistance occurred

Molecule: Rituximab [reference compound]
synergistic effect of co-administration with erlotinib (HCC827 ER #15; HCC827 ER #15, antibody dilution series with 10 nM or 100 nM erlotinib, 5 days, FIGS. 4a-4d): synergistic effect was not observed
synergistic effects on cell viability, co-administration with erlotinib at fixed concentrations (HCC827 ER #15; HCC827 ER#15, antibodies 0.14 μg/ml, erlotinib 10 nM, FIG. 5): synergistic effects were not observed

specificity to c-Met (c-Met): exhibit specificity to c-Met
B1: scFv of huAbF46: VH-linker-VL single-chain Fv of the huAbF46 antibody (polynucleotide SEQ ID NO: 55) (protein)
scFv: EVQLVESGGGLVQPGGSLRLSCAASGFTFTDYYMSWVRQAPGKGLEWLGFIRNKANGYTTEYSASVKGRFTISRDNSKNTLYLQMNSLRAEDTAVYYCARDNWFAYWGQGTLVTVSSGLGGLGGGGSGGGGSGGSSGVGSDIQMTQSPSSLSASVGDRVTITCKSSQSLLASGNQNNYLAWHQQKPGKAPKMLIIWASTRVSGVPSRFSGSGSGTDFTLTISSLQPEDFATYYCQQSYSAPLTFGQGTKVEIKR
